Test results: PubChem BioAssay AID248 (DTP/NCI, 2004)
“And” between values parts separate entries of the source, which are not always exact repeats. Identical values can stand only once. Inconclusive results and toxic doses are left out. Cut-off read from the data, not from the text of the source: active = T/C of 150% or more; inactive = T/C below 125%.

Test system: L1210 leukemia ip in BDF1 mice, survival T/C
Test: NCI In Vivo Anticancer Drug Screen. Data for tumor model L1210 Leukemia (intraperitoneal) in B6D2F1 (BDF1) mice
Details: endpoint: mean survival time, higher = longer survival
Method in brief: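 Transplanted-tumor mice were given test agent; controls received vehicle only. Survival readings from the two groups were divided (treated over control).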

[1] = dose: 100.0 mg/kg/injection, schedule: Q04DX002 (ip), vehicle: Klucel (hydroxypropylcellulose) (HPC)
[2] = dose: 200.0 mg/kg/injection, schedule: Q04DX002 (ip), vehicle: Klucel (hydroxypropylcellulose) (HPC)
[3] = dose: 400.0 mg/kg/injection, schedule: Q04DX002 (ip), vehicle: Klucel (hydroxypropylcellulose) (HPC)
[4] = dose: 50.0 mg/kg/injection, schedule: Q01DX009 (ip), vehicle: Klucel (hydroxypropylcellulose) (HPC)
[5] = dose: 100.0 mg/kg/injection, schedule: Q01DX009 (ip), vehicle: Klucel (hydroxypropylcellulose) (HPC)
[6] = dose: 100.0 mg/kg/injection, schedule: Q04DX003 (ip), vehicle: Klucel (hydroxypropylcellulose) (HPC)
[7] = dose: 200.0 mg/kg/injection, schedule: Q01DX009 (ip), vehicle: Klucel (hydroxypropylcellulose) (HPC)
[8] = dose: 200.0 mg/kg/injection, schedule: Q04DX003 (ip), vehicle: Klucel (hydroxypropylcellulose) (HPC)
[9] = dose: 400.0 mg/kg/injection, schedule: Q01DX009 (ip), vehicle: Klucel (hydroxypropylcellulose) (HPC)
[10] = dose: 400.0 mg/kg/injection, schedule: Q04DX003 (ip), vehicle: Klucel (hydroxypropylcellulose) (HPC)
[11] = dose: 100.0 mg/kg/injection, schedule: Q01DX001 (ip), vehicle: carboxymethylcellulose (CMC)
[12] = dose: 200.0 mg/kg/injection, schedule: Q01DX001 (ip), vehicle: carboxymethylcellulose (CMC)
[13] = dose: 400.0 mg/kg/injection, schedule: Q01DX001 (ip), vehicle: carboxymethylcellulose (CMC)
[14] = dose: 100.0 mg/kg/injection, schedule: Q01DX009 (ip), vehicle: saline with Tween-80
[15] = dose: 200.0 mg/kg/injection, schedule: Q01DX009 (ip), vehicle: saline with Tween-80

Measured: T/C

O=c1[nH]cnc2c1ncn2C1CCCC1
inactive: dose: 18.12 mg/kg/injection, schedule: Q01DX Z (ip), vehicle: carboxymethylcellulose (CMC) 98 % of control | dose: 36.25 mg/kg/injection, schedule: Q01DX Z (ip), vehicle: carboxymethylcellulose (CMC) 98 % of control | dose: 36.25 mg/kg/injection, schedule: Q01DX Z (oral), vehicle: carboxymethylcellulose (CMC) 110 % of control | dose: 72.5 mg/kg/injection, schedule: Q01DX Z (ip), vehicle: carboxymethylcellulose (CMC) 93 % of control | dose: 72.5 mg/kg/injection, schedule: Q01DX Z (oral), vehicle: carboxymethylcellulose (CMC) 98 % of control | dose: 145.0 mg/kg/injection, schedule: Q01DX Z (ip), vehicle: carboxymethylcellulose (CMC) 98 % of control | dose: 145.0 mg/kg/injection, schedule: Q01DX Z (oral), vehicle: carboxymethylcellulose (CMC) 102 % of control | dose: 290.0 mg/kg/injection, schedule: Q01DX Z (oral), vehicle: carboxymethylcellulose (CMC) 110 % of control

Cc1cccc(NC(=O)COc2ccc(C)cc2C)c1
inactive: [1] 103 % of control | [2] 92 % of control | [3] 95 % of control

C=CCOP(=O)(OCC=C)OCC=C
inactive: [4] 97 % of control | dose: 50.0 mg/kg/injection, schedule: Q04DX003 (ip), vehicle: Klucel (hydroxypropylcellulose) (HPC) 99 % of control | [5] 97 % of control | [6] 91 % of control | [7] 98 % of control | [8] 93 % of control

Cc1ccc(S(=O)(=O)Oc2ccc(Cl)cc2)cc1
inactive: [5] 102 % of control | [6] 105 % of control | [7] 98 % of control | [8] 97 % of control | [9] 102 % of control | [10] 101 % of control

O=C1NC(c2cccs2)(c2cccs2)C(=O)N1Cl
inactive: dose: 6.25 mg/kg/injection, schedule: Q01DX009 (ip), vehicle: water 100 % of control | dose: 12.5 mg/kg/injection, schedule: Q01DX009 (ip), vehicle: water 97 % of control and 116 % of control | dose: 25.0 mg/kg/injection, schedule: Q01DX009 (ip), vehicle: water 98 % of control and 113 % of control | dose: 25.0 mg/kg/injection, schedule: Q04DX003 (ip), vehicle: water 92 % of control | dose: 50.0 mg/kg/injection, schedule: Q01DX009 (ip), vehicle: water 104 % of control and 87 % of control | dose: 50.0 mg/kg/injection, schedule: Q04DX003 (ip), vehicle: water 100 % of control | dose: 100.0 mg/kg/injection, schedule: Q01DX009 (ip), vehicle: water 87 % of control | dose: 100.0 mg/kg/injection, schedule: Q04DX003 (ip), vehicle: water 97 % of control and 112 % of control | dose: 150.0 mg/kg/injection, schedule: Q01DX009 (ip), vehicle: water 116 % of control | dose: 200.0 mg/kg/injection, schedule: Q01DX009 (ip), vehicle: water 93 % of control

CCS(=O)(=O)C(c1ccccc1)S(=O)(=O)CC
inactive: [11] 95 % of control | [12] 87 % of control | [13] 98 % of control

Cc1c2cnccc2c(C)c2c1c1ccccc1n2CCCC#N
inactive: [6] 105 % of control | [8] 102 % of control | [10] 109 % of control

Nc1cc(Cl)cc2c1-c1c(Cl)cc(Cl)cc1C2
inactive: [5] 102 % of control | [6] 96 % of control | [8] 104 % of control | [9] 102 % of control | [10] 104 % of control

CC(=O)C1=CCC2C3CC(C)=C4CC(O)CCC4(C)C3CCC12C (stereo not given)
inactive: dose: 100.0 mg/kg/injection, schedule: Q04DX003 (ip), vehicle: saline with Tween-80 94 % of control | dose: 200.0 mg/kg/injection, schedule: Q04DX003 (ip), vehicle: saline with Tween-80 92 % of control | dose: 400.0 mg/kg/injection, schedule: Q04DX003 (ip), vehicle: saline with Tween-80 90 % of control

O=C(O)C1CC(n2cnc3c(=O)[nH]cnc32)CN1 (stereo not given)
inactive: dose: 50.0 mg/kg/injection, schedule: Q04DX002 (ip), vehicle: saline with Tween-80 102 % of control | dose: 100.0 mg/kg/injection, schedule: Q04DX002 (ip), vehicle: saline with Tween-80 98 % of control

CNC(=O)Nc1cccc(OC(=O)NC(C)(C)C)c1
inactive: [14] 91 % of control | [15] 93 % of control

CN(C(=O)c1cccc([N+](=O)[O-])c1)C1CCCCC1
inactive: [5] 93 % of control | [7] 100 % of control | [9] 96 % of control

COc1ccccc1NC(=O)NCc1ccco1
inactive: dose: 77.0 mg/kg/injection, schedule: Q01DX Z (ip), vehicle: methylcellulose (MC) 90 % of control | dose: 116.0 mg/kg/injection, schedule: Q01DX Z (ip), vehicle: methylcellulose (MC) 103 % of control | dose: 175.0 mg/kg/injection, schedule: Q01DX Z (ip), vehicle: methylcellulose (MC) 105 % of control

COc1cc2cc3c4cc(OC)c(OC)cc4cc[n+]3c(/C=C/c3ccc(Cl)cc3)c2cc1OC
inactive: [11] 93 % of control and 99 % of control | dose: 100.0 mg/kg/injection, schedule: Q04DX002 (ip), vehicle: carboxymethylcellulose (CMC) 102 % of control and 103 % of control | dose: 100.0 mg/kg/injection, schedule: Q04DX003 (ip), vehicle: carboxymethylcellulose (CMC) 100 % of control and 103 % of control | [12] 99 % of control and 114 % of control | dose: 200.0 mg/kg/injection, schedule: Q04DX002 (ip), vehicle: carboxymethylcellulose (CMC) 94 % of control and 105 % of control | dose: 200.0 mg/kg/injection, schedule: Q04DX003 (ip), vehicle: carboxymethylcellulose (CMC) 95 % of control and 117 % of control | [13] 94 % of control and 111 % of control | dose: 400.0 mg/kg/injection, schedule: Q04DX002 (ip), vehicle: carboxymethylcellulose (CMC) 102 % of control and 113 % of control | dose: 400.0 mg/kg/injection, schedule: Q04DX003 (ip), vehicle: carboxymethylcellulose (CMC) 100 % of control and 92 % of control

CCOC(=O)CCC[P+](c1ccccc1)(c1ccccc1)c1ccccc1
inactive: [14] 107 % of control | [15] 113 % of control

CSC(=S)NNC(=O)c1cccc([N+](=O)[O-])c1
inactive: dose: 6.25 mg/kg/injection, schedule: Q04DX003 (ip), vehicle: saline sonified 95 % of control | dose: 12.5 mg/kg/injection, schedule: Q04DX003 (ip), vehicle: saline sonified 100 % of control | dose: 25.0 mg/kg/injection, schedule: Q04DX003 (ip), vehicle: saline sonified 101 % of control

CCCCNC(=O)Nc1ccccc1
inactive: [6] 100 % of control | [8] 112 % of control | [10] 96 % of control

Cc1ccc(NC(=O)NCCCOc2ccc(N3C(N)=NC(N)=NC3(C)C)cc2Cl)cc1S(=O)(=O)F
inactive: dose: 50.0 mg/kg/injection, schedule: Q01DX001 (ip), vehicle: saline 93 % of control | dose: 100.0 mg/kg/injection, schedule: Q01DX001 (ip), vehicle: saline 98 % of control | dose: 200.0 mg/kg/injection, schedule: Q01DX001 (ip), vehicle: saline 97 % of control

Cc1cc(C)c2c(c1)-c1nc3c(cc1CC2)CCc1c(C)cc(C)cc1-3
inactive: [6] 100 % of control | [8] 95 % of control | [10] 97 % of control

O=C1c2ccccc2C(=O)N1SN1C(=O)c2ccccc2C1=O
inactive: dose: 25.0 mg/kg/injection, schedule: Q01DX009 (ip), vehicle: Klucel (hydroxypropylcellulose) (HPC) 92 % of control | [4] 93 % of control | [5] 97 % of control

CCOC(=O)CCC1(CCC(=O)OCC)c2ccccc2-c2ccccc21
inactive: [5] 97 % of control | [7] 100 % of control | [9] 94 % of control

CC(=O)Oc1cc(C(C)C)c(OCCN(C)C)cc1C
inactive: dose: 6.25 mg/kg/injection, schedule: Q01DX009 (ip), vehicle: saline 94 % of control | dose: 12.5 mg/kg/injection, schedule: Q01DX009 (ip), vehicle: saline 98 % of control | dose: 25.0 mg/kg/injection, schedule: Q01DX009 (ip), vehicle: saline 100 % of control

CC12CCC(Cl)CC1=CCC1C2CCC2(C)c3nc(N)ncc3CC12 (stereo not given)
inactive: dose: 100.0 mg/kg/injection, schedule: Q04DX003 (sc), vehicle: gum acacia 101 % of control | dose: 200.0 mg/kg/injection, schedule: Q04DX003 (sc), vehicle: gum acacia 92 % of control | dose: 400.0 mg/kg/injection, schedule: Q04DX003 (sc), vehicle: gum acacia 103 % of control

Cc1no[n+]([O-])c1NC(=O)OCc1ccccc1
inactive: [1] 98 % of control | [2] 102 % of control | [3] 98 % of control
